Measurements published in ChEMBL document CHEMBL4622979, “Non-rigid Diarylmethyl Analogs of Baloxavir as Cap-Dependent Endonuclease Inhibitors of Influenza Viruses” (J Med Chem, 2020).
Active and inactive are the calls of the source. No cut-off for these calls is given here.

Tests used:
[1] = AUClast in CD1 mouse plasma assessed as baloxavir acid level at 15 mg/kg, po administered as single dose by LC-MS/MS analysis; format: ADME, organism-based; set-up: dose 15 mg/kg, route oral, time 0 - last; settings: in vivo
[2] = Half life in CD1 mouse plasma assessed as baloxavir acid level at 15 mg/kg, po administered as single dose measured up to 24 hrs by LC-MS/MS analysis; format: ADME, organism-based; settings: in vivo
[3] = MRTlast in CD1 mouse blood assessed as baloxavir acid level at 15 mg/kg, po administered as single dose measured up to 24 hrs by LC-MS/MS analysis; format: ADME, organism-based; settings: in vivo
[4] = MRTlast in CD1 mouse liver assessed as baloxavir acid level at 15 mg/kg, po administered as single dose measured up to 24 hrs by LC-MS/MS analysis; format: ADME, organism-based; settings: in vivo
[5] = Ratio of AUClast in CD1 mouse liver to plasma assessed as baloxavir acid level at 15 mg/kg, po administered as single dose measured up to 24 hrs by LC-MS/MS analysis; format: ADME, organism-based; settings: other tissue
[6] = AUCinfinity in CD1 mouse heart assessed as baloxavir acid level at 15 mg/kg, po administered as single dose measured up to 24 hrs by LC-MS/MS analysis; format: ADME, organism-based; set-up: dose 15 mg/kg, time infinity, route oral; settings: in vivo
[7] = MRTlast in CD1 mouse heart assessed as baloxavir acid level at 15 mg/kg, po administered as single dose measured up to 24 hrs by LC-MS/MS analysis; format: ADME, organism-based; settings: in vivo
[8] = Stability in simulated gastric fluid assessed as parent compound remaining at 1 uM measured after 4 hrs at pH 1.2 by LC-MS/MS analysis; format: physicochemical; settings: read-out: Stability
[9] = Stability in simulated intestinal fluid assessed as parent compound remaining at 1 uM measured after 4 hrs at pH 1.2 by LC-MS/MS analysis; format: physicochemical; settings: read-out: Stability
[10] = AUClast in CD1 mouse small intestine assessed as baloxavir acid level at 15 mg/kg, po administered as single dose measured up to 24 hrs by LC-MS/MS analysis; format: ADME, organism-based; settings: in vivo
[11] = Elimination rate constant in CD1 mouse spleen assessed as baloxavir acid level at 15 mg/kg, po administered as single dose measured up to 24 hrs by LC-MS/MS analysis; format: ADME, organism-based; settings: in vivo
[12] = Protein binding in human plasma at 1 uM measured after 4 hrs by LC-MS/MS analysis; format: ADME, cell-free; settings: read-out: PPB (converted)
[13] = Protein binding in rat plasma at 1 uM measured after 4 hrs by LC-MS/MS analysis; format: ADME, cell-free; settings: read-out: PPB (converted)
[14] = Protein binding in mouse plasma at 1 uM measured after 4 hrs by LC-MS/MS analysis; format: ADME, cell-free; settings: read-out: PPB (converted)
Influenza A virus [15] = test: (§1) Antiviral activity against Influenza A/California/04/2009 (H1N1)pdm09 infected in specific pathogen-free BALB/c mouse assessed as protection against virus-induced mouse death at 50 mg/kg, po administered via gavage immediately after infection and at 12 hrs post-infection measured on 16 days post-infection relative to control; format: functional
Influenza A virus [16] = test: as §1, with “20” for “50”; format: functional
[17] = Toxicity in Influenza A/California/04/2009 (H1N1)pdm09 infected specific pathogen-free BALB/c mouse assessed as effect on body weight at 20 to 50 mg/kg, po administered via gavage immediately after infection and at 12 hrs post-infection measured after 10 days post-infection; format: organism-based; settings: in vivo, 240 h
Influenza A virus [18] = test: Antiviral activity against Influenza A/California/04/2009 (H1N1)pdm09 infected in specific pathogen-free BALB/c mouse assessed as reduction in virus titre in lung at 50 mg/kg, po administered via gavage immediately after infection and at 12 hrs post-infection measured 24 hrs post-infection; format: functional, organism-based
[19] = Cytotoxicity against human PBMC cells assessed as reduction in cell viability by ATP bioluminescence assay; format: cell-based
[20] = Acute toxicity in CD1 mouse assessed as effect on water consumption at 2000 mg/kg, po measured for 2 weeks; format: organism-based; settings: in vivo, 336 h
[21] = Cmax in CD1 mouse plasma assessed as (12aR)-12-(Diphenylmethyl)-7-hydroxy-3,4,12,12a-tetrahydro-1H-[1,4]oxazino[3,4-c]pyrido[2,1-f ][1,2,4]triazine-6,8-dione level at 15 mg/kg, po administered as single dose by LC-MS/MS analysis; format: ADME, organism-based; set-up: dose 15 mg/kg, route oral; settings: in vivo
[22] = AUCinfinity in CD1 mouse blood assessed as (12aR)-12-(Diphenylmethyl)-7-hydroxy-3,4,12,12a-tetrahydro-1H-[1,4]oxazino[3,4-c]pyrido[2,1-f ][1,2,4]triazine-6,8-dione level at 15 mg/kg, po administered as single dose measured up to 24 hrs by LC-MS/MS analysis; format: ADME, organism-based; set-up: dose 15 mg/kg, time infinity, route oral; settings: in vivo
[23] = Half life in CD1 mouse liver assessed as (12aR)-12-(Diphenylmethyl)-7-hydroxy-3,4,12,12a-tetrahydro-1H-[1,4]oxazino[3,4-c]pyrido[2,1-f ][1,2,4]triazine-6,8-dione level at 15 mg/kg, po administered as single dose measured up to 24 hrs by LC-MS/MS analysis; format: ADME, organism-based; settings: in vivo
[24] = AUCinfinity in CD1 mouse liver assessed as (12aR)-12-(Diphenylmethyl)-7-hydroxy-3,4,12,12a-tetrahydro-1H-[1,4]oxazino[3,4-c]pyrido[2,1-f ][1,2,4]triazine-6,8-dione level at 15 mg/kg, po administered as single dose measured up to 24 hrs by LC-MS/MS analysis; format: ADME, organism-based; set-up: dose 15 mg/kg, route oral, time infinity; settings: in vivo
[25] = Cmax in CD1 mouse lung assessed as (12aR)-12-(Diphenylmethyl)-7-hydroxy-3,4,12,12a-tetrahydro-1H-[1,4]oxazino[3,4-c]pyrido[2,1-f ][1,2,4]triazine-6,8-dione level at 15 mg/kg, po administered as single dose measured up to 24 hrs by LC-MS/MS analysis; format: ADME, organism-based; set-up: dose 15 mg/kg, route oral; settings: in vivo
[26] = Half life in CD1 mouse small intestine assessed as (12aR)-12-(Diphenylmethyl)-7-hydroxy-3,4,12,12a-tetrahydro-1H-[1,4]oxazino[3,4-c]pyrido[2,1-f ][1,2,4]triazine-6,8-dione level at 15 mg/kg, po administered as single dose measured up to 24 hrs by LC-MS/MS analysis; format: ADME, organism-based; settings: in vivo
[27] = MRTlast in CD1 mouse brain assessed as (12aR)-12-(Diphenylmethyl)-7-hydroxy-3,4,12,12a-tetrahydro-1H-[1,4]oxazino[3,4-c]pyrido[2,1-f ][1,2,4]triazine-6,8-dione level at 15 mg/kg, po administered as single dose measured up to 24 hrs by LC-MS/MS analysis; format: ADME, organism-based; settings: in vivo
[28] = Ratio of AUClast in CD1 mouse brain to plasma assessed as (12aR)-12-(Diphenylmethyl)-7-hydroxy-3,4,12,12a-tetrahydro-1H-[1,4]oxazino[3,4-c]pyrido[2,1-f ][1,2,4]triazine-6,8-dione level at 15 mg/kg, po administered as single dose measured up to 24 hrs by LC-MS/MS analysis; format: ADME, organism-based
[29] = Ratio of AUClast in CD1 mouse muscle to plasma assessed as (12aR)-12-(Diphenylmethyl)-7-hydroxy-3,4,12,12a-tetrahydro-1H-[1,4]oxazino[3,4-c]pyrido[2,1-f ][1,2,4]triazine-6,8-dione level at 15 mg/kg, po administered as single dose measured up to 24 hrs by LC-MS/MS analysis; format: ADME, organism-based; settings: other tissue

With `COC(=O)OCOc1c2n(ccc1=O)N([C@@H]1c3ccccc3SCc3c1ccc(F)c3F)[C@@H]1COCCN1C2=O` [BALOXAVIR MARBOXIL] the AUClast [1] was 715 ng·h/mL, the t1/2 [2] was 3.8 h and the MRTlast [3] was 3.93 h. For the same compound, the MRTlast [4] was 2.92 h, the “Ratio AUC” value [5] was 189 and the AUC [6] was 9025 ng·h/g. For the same compound, the MRTlast [7] was 4.84 h, the remaining at 4 h, 1 µM [8] was 101% and the remaining at 4 h, 1 µM [9] was 87.9%. For the same compound, the AUClast [10] was 105778 ng·h/g, the Kel [11] was 0.2 h⁻¹ and the fraction unbound at 4 h, 1 µM [12] was 0.057. For the same compound, the fraction unbound at 4 h, 1 µM [13] was 0.064, the fraction unbound at 4 h, 1 µM [14] was 0.08 and the Activity (Influenza A virus [15]) was 90%. For the same compound, the Activity (Influenza A virus [16]) was 80%, the Activity [17] was “Non-Toxic” and the Activity (Influenza A virus [18]) was “Active”.

In the case of `COC(=O)OCOc1c2n(ccc1=O)N(C(c1ccccc1)c1ccccc1)[C@@H]1COCCN1C2=O`, the CC50 [19] is reported as 100 µM, the Activity [20] is reported as “Non-Toxic” and the Cmax [21] is reported as 875 ng/mL. For the same compound, the AUC [22] was 2861 ng·h/g, the t1/2 [23] was 2.34 h and the AUC [24] was 34838 ng·h/g. The Cmax [25] was 2847 ng/g, the remaining at 4 h, 1 µM [8] was 94.8% and the remaining at 4 h, 1 µM [9] was 93.7%. For the same compound, the t1/2 [26] was 1.28 h, the MRTlast [27] was 3.33 h and the “Ratio AUC” value [28] was 0.19. For the same compound, the “Ratio AUC” value [29] was 2.26, the fraction unbound at 4 h, 1 µM [12] was 0.01 and the fraction unbound at 4 h, 1 µM [13] was 0.016. It also gave a fraction unbound at 4 h, 1 µM [14] of 0.009, an Activity (Influenza A virus [15]) of 80% and an Activity (Influenza A virus [16]) of 80%. For the same compound, the Activity [17] was “Non-Toxic” and the Activity (Influenza A virus [18]) was “Active”.
